Experimental findings from ChEMBL document CHEMBL6120940, “Discovery of N-Aryl-N'-[4-(aryloxy)cyclohexyl]squaramide-Based Inhibitors of LXR/SREBP-1c Signaling Pathway Ameliorating Steatotic Liver Disease: Navigating the Role of SIRT6 Activation” (J Med Chem, 2024) are described below.

Series [1] concerns the target CYP2C9 (Homo sapiens, UniProt P11712). The series can be described thus: Inhibition of CYP2C9 in human liver microsomes at 10 uM using diclofenac as substrate preincubated for 5 mins followed by NADPH generating system addition and measured after 15 mins relative to control. In kind it is ADME, Microsome. Conditions: probe diclofenac, time 20 min.
Series [2] relates to Hepatocyte. The series can be described thus: Inhibition of Srebp-1c level in mouse hepatocyte at 10 uM preincubated with compound for 30 mins followed by T0901317 addition and measured after 12 hrs. In kind it is functional, cell-based. Conditions: time 12.5 hrs.
Series [3] has as its system HepG2. The series can be described thus: Cytotoxicity against human HepG2 cells at 10 uM measured after 24 hrs by CCK-8 method relative to control. In kind it is functional. On the technique in general: Tetrazolium dyes change colour on reduction, which living cells bring about.
In series [4] the test system is HepG2. The series can be described thus: Activation of AMPK in human HepG2 cells assessed as increase in ratio of ACACA phosphorylation to total ACACA at 5 uM pretreated with compound for 30 mins followed by T0901317 addition and measured after 12 hrs by immunoblot analysis. Conditions: filed as activator, time 12.5 hrs. In kind it is cell-based. (A western blot detects proteins with antibodies after separation by electrophoresis.)

Series [5] in a line: Terminal half life in 16 hrs fasted ICR mouse at 2 mg/kg, iv measured upto 8 hrs by LC-MS/MS analysis. The format is ADME, organism-based. Conditions: in vivo, read-out: beta t1/2 (converted).
Series [6] is described as follows: MRT infinity in 16 hrs fasted ICR mouse at 2 mg/kg, iv measured upto 8 hrs by LC-MS/MS analysis. Conditions: in vivo. The format is ADME, organism-based.
The nature of series [7]: AUC infinity in 16 hrs fasted ICR mouse at 2 mg/kg, iv measured upto 8 hrs by LC-MS/MS analysis. The format is ADME, organism-based. Conditions: in vivo.
The subject of series [8] is HepG2. The series can be described thus: Downregulation of SCD mRNA level in human HepG2 cells at 10 uM pretreated with compound for 30 mins followed by T0901317 addition and measured after 12 hrs by RT-qPCR analysis. In kind it is functional, cell-based. Conditions: time 12.5 hrs. (In general: Quantitative PCR measures a nucleic acid by following its amplification.)

The subject of series [9] is Mus musculus. Description: Anti-lipogenic activity against high fat died induced male C57BL/6J mouse obesity model assessed as decrease in hepatic fat content at 15 mg/kg, po administered three times per week and measured for 5 weeks by Oil red O staining based analysis. In kind it is functional, organism-based.
Series [10] deals with T1, Oxysterols receptor LXR-alpha (Homo sapiens) (UniProt Q13133).
T1 sequence (whole entry): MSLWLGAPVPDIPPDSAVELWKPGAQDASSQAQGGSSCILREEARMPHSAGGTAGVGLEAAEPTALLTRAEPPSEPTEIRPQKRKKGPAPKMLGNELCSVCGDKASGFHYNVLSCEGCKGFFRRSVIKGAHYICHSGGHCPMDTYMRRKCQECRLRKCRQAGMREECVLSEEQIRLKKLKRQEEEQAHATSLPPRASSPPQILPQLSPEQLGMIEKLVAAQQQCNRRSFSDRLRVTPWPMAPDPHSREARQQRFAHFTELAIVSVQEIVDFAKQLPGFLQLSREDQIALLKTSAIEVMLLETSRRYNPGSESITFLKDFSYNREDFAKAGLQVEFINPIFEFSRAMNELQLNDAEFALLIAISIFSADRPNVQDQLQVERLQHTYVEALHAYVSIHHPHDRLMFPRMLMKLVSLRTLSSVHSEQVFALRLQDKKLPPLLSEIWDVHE
The series can be described thus: Inhibition of LXRalpha in HEK293 cells expressing LXRE at 2.5 to 5 uM preincubated for 30 mins followed by T0901317 addition and measured after 24 hrs by Dual-glo luciferase assay. The format is cell-based. Conditions: dose 2.5-5 µM, time 24.5 hrs.

The test system of series [11] is HepG2. Description: Downregulation of acetylated histone H3K9 level in human HepG2 cells preincubated for 30 mins followed by GW3965 addition and measured after 12 hrs. Conditions: dose 5-10 µM, time 12.5 hrs. The format is functional, cell-based.
In series [12] the test system is HepG2. Description: Lipid lowering effect on palmitic acid induced lipid accumulation in human HepG2 cells at 5 uM incubated for 30 mins by Oil red O staining based analysis. In kind it is functional, cell-based.
Series [13] has as its system HepG2. Description: Downregulation of SREBP-1c expression level in nucleus of human HepG2 cells at 10 uM pretreated with compound for 30 mins followed by GW3965 addition and measured after 12 hrs by immunoblot analysis. In kind it is functional, cell-based. Conditions: time 12.5 hrs.
Series [14] has as its system HepG2. Description: Downregulation of ACACA mRNA level in human HepG2 cells at 10 uM pretreated with compound for 30 mins followed by T0901317 addition and measured after 12 hrs by RT-qPCR analysis. Conditions: time 12.5 hrs. The format is functional, cell-based.
A short description of series [15]: MRT infinity in 16 hrs fasted ICR mouse at 20 mg/kg, po measured upto 8 hrs by LC-MS/MS analysis. Conditions: in vivo. The format is ADME, organism-based.
For series [16], the system named is Hepatocyte. The series can be described thus: Downregulation of Cd36 mRNA level in mouse Hepatocyte at 10 uM incubated for 30 mins followed by T0901317 addition by RT-qPCR analysis. In kind it is functional, cell-based.
Series [17] addresses T1, Oxysterols receptor LXR-alpha (Homo sapiens). The series can be described thus: Inhibition of LXRalpha in human HepG2 cells expressing LXRE at 2.5 to 5 uM preincubated for 30 mins followed by T0901317 addition and measured after 24 hrs by Dual-glo luciferase assay. The format is cell-based. Conditions: dose 2.5-5 µM, time 24.5 hrs.
Series [18] relates to Mus musculus. The series can be described thus: Anti-lipogenic activity against high fat died induced male C57BL/6J mouse obesity model assessed as downregulation of Fasn level at 15 mg/kg, po administered three times per week and measured after 5 weeks by RT-qPCT analysis. The format is functional, organism-based.
Series [19] relates to HepG2. Description: Downregulation of ACACA gene expression in human HepG2 cells in presence of T0901317 by RNA sequencing analysis. In kind it is functional, cell-based.
Series [20] concerns HepG2. The series can be described thus: Downregulation of FASN mRNA level in human HepG2 cells at 10 uM pretreated with compound for 30 mins followed by T0901317 addition and measured after 12 hrs by RT-qPCR analysis. The format is functional, cell-based. Conditions: time 12.5 hrs.

Active and inactive are the calls of the source. The rule behind the calls is not given here.

Chain of CYP2C9 (P11712 whole entry): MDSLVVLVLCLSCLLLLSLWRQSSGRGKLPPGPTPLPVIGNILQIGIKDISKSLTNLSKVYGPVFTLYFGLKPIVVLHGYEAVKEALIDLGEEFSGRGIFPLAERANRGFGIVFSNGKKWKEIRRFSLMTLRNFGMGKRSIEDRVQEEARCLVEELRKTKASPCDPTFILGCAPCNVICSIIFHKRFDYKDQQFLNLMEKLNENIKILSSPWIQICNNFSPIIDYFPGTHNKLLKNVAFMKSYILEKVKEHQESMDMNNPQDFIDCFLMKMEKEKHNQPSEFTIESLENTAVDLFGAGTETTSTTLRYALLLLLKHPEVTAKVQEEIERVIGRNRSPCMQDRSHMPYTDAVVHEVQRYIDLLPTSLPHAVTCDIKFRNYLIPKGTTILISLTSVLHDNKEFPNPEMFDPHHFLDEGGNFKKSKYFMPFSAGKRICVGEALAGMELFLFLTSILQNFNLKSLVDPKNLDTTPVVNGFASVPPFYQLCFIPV

With `COc1ccccc1Nc1c(N[C@H]2CC[C@H](Oc3ccc([N+](=O)[O-])cc3)CC2)c(=O)c1=O`, the inhibition at 0.25 h, 10 µM in series [1] came out at 60.5%. Also, the inhibition result in series [2], in series [10] and in [17] was “Active” in each case. The Activity in [3] was 90.3%; in series [11], “Dose-dependent-effect”. Also, the result in series [4], in [8], in series [9], in series [12], in [13] and in series [14] was Active. Also, the result in series [18], in series [19] and in [20] was Active. Further, in series [5], the half-life was 1.4 h. For the same compound, the mean residence time (MRT inf) amounted to 1.3 h in series [6] and 1.6 h in series [15]. Besides, the AUC(0-inf) in series [7] is 2400 ng·h/mL. In series [16], the result was inactive.

One may read the inhibition as the share of the control response that was lost under treatment. Broadly, the MRT inf is the average time that molecules of a dose stay in the body. The term AUC(0-inf) denotes total exposure, with the tail of the curve extrapolated.
